This note sets out measurements from patent publication US7534808B2, “Indolylmaleimide derivatives” (priority 2002, dated 2009).

The target in one test is Human recombinant PKCθ (Homo sapiens, UniProt Q04759). As to the kind of experiment: Protein Kinase C θ Assay. In kind it is biochemical. The protocol:
(§1) The compounds of formula I are tested for their activity on different PKC isoforms according to a published method (D. Geiges et al. Biochem. Pharmacol. 1997; 53:865-875) The assay is performed in a 96-well polypropylene microtiterplate (Costar 3794) that has been previously siliconized with Sigmacote (Sigma SL-2). The reaction mixture (50 μl) contains 10 μl of the relevant PKC isozyme together with 25 μl of the test compound and 15 μl of a mix solution that contains 200 μg/ml protamine sulfate, 10 mM Mg(NO3)2, 10 μM ATP (Boehringer 519987) and 3750 Bq of ^33P-ATP (Hartmann Analytic SFC301, 110TBq/mmol) in 20 mM Tris-buffer pH 7.4+0.1% BSA. Incubation is performed for 15 min at 32° C. in a microtiterplate shaking incubator (Biolabo Scientific Instruments). Reaction is stopped by adding 10 μl of 0.5 M Na2EDTA, pH 7.4. 50 μl of mixture are pipetted onto a pre-wetted phosphocellulose paper (Whatmann 3698-915) under gentle pressure. Non-incorporated ATP is washed away with 100 μl bi-dist H2O. The paper is washed twice in 0.5% H3PO4 for 15 min followed by 5 min in EtOH. Thereafter the paper is dryed and placed in an omnifilter (Packard 6005219), and overlayed with 10 μl/well of Microscint-O (Packard 6013611) before counting in a Topcount radioactivity counter (Packard). […] IC50 values are calculated from the graph by sigmoidal curve fitting. […]

A further test deals with T1, Human recombinant PKCε (Homo sapiens, UniProt Q02156).
T1 construct: purchased Oxford Biomedical Research
T1 sequence (Q02156 1-737): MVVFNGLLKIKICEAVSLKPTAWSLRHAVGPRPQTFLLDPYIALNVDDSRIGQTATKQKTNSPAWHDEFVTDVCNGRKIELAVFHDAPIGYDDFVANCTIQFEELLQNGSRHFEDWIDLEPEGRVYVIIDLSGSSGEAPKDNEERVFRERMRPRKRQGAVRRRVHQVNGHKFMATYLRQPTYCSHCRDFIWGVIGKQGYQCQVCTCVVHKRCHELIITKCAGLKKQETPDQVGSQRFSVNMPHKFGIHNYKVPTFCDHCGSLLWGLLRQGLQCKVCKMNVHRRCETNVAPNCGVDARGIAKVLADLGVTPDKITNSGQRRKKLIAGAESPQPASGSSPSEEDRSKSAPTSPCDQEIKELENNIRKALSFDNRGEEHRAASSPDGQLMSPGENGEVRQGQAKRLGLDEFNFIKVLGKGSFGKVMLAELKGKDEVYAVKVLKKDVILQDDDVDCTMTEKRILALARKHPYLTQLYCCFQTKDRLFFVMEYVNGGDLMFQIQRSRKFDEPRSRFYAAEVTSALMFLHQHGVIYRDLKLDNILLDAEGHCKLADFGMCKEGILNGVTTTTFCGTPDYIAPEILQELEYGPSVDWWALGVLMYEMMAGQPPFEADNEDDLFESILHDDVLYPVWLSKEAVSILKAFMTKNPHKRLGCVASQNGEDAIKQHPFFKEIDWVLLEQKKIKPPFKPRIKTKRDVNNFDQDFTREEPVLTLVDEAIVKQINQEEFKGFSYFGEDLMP
As to the kind of experiment: Protein Kinase Cε Assay. Type of test: biochemical. As for the experimental part: as §1

Human recombinant PKCθ, sequence (Q04759 whole entry, canonical isoform): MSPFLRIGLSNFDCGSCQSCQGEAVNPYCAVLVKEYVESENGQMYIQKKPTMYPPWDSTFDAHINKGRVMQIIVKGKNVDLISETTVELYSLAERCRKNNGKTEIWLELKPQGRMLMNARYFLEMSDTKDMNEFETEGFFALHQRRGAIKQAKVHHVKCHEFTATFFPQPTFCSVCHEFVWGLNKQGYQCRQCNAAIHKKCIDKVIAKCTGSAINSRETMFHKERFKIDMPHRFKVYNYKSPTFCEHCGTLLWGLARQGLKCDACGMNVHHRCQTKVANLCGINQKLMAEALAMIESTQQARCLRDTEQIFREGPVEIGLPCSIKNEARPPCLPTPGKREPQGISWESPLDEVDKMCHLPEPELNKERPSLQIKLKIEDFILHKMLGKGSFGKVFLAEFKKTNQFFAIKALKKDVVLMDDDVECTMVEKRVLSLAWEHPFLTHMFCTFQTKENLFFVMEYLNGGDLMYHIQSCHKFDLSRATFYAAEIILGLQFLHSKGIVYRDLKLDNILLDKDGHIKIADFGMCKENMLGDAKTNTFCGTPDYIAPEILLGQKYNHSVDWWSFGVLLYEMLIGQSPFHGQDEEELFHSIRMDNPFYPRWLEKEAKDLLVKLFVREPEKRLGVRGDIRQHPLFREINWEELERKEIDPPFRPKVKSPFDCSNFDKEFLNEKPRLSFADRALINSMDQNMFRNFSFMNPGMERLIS

Broadly, the IC50 is the midpoint of a concentration-inhibition curve. Turning to `Cc1cccc2c(C3=C(c4nc(N5CCNC6(CC6)C5)cc5ccccc45)C(=O)NC3=O)c[nH]c12` [Example 69, 3-[3-(4,7-Diaza-spiro[2.5]oct-7-yl)-isoquinolin-1-yl]-4-(7-methyl-1H-indol-3-yl)-pyrrole-2,5-dione], the IC50 at Human recombinant PKCθ was 12.1 nM; on Human recombinant PKCε, 18 nM.
